Test results from patent publication US8481501B2 (priority 2004, dated 2013).
Read-outs that look alike come from different tables or passages of the source.

Tests used:
[1] = Metabolic stability in human liver pooled S9; details: for HLS9 t 1/2: 3.2 mg/mL HLS9, 0.1 mM compound; for half-life at 0.1 mM: human, s9, pH 7.4
[2] = biological target: T1, delta opioid receptor (Homo sapiens, UniProt P41143); assay: biochemical; type: binding; design: expressed in transfected cells; host or cells: transfected cells
[3] = biological target: T2, kappa opioid receptor (Homo sapiens, UniProt P41145); assay: biochemical; type: biochemical; design: expressed in transfected cells; host or cells: transfected cells; details: for Emax: read-out: kappa % stimulation
[4] = biological target: T2, kappa opioid receptor; assay: biochemical; type: binding; design: expressed in transfected cells; host or cells: transfected cells
[5] = Chemical stability at pH 2.0 and pH 7.4, HPLC
Text: The chemical stability of selected compounds were examined at pH 7.4 and pH 2.0. […] Then HPLC was used to analyze the decomposition of the starting material.

[6] = biological target: T1, delta opioid receptor; assay: Stimulation of [35S]GTPγS binding (coupling to G proteins); type: biochemical; design: expressed in transfected cells; host or cells: transfected cells
[7] = biological target: T1, delta opioid receptor; design: expressed in transfected cells; host or cells: transfected cells; details: Table 6, data from reference 6, cited from earlier work; for EC50: read-out: δ EC50
[8] = Metabolic stability in mouse liver microsomes; details: for MLM t 1/2: 1.2 mg/mL MLM, 0.1 mM compound; for half-life at 0.1 mM: mouse, microsomes, pH 7.4
[9] = biological target: T2, kappa opioid receptor; design: expressed in transfected cells; host or cells: transfected cells; details: Table 6, data from reference 6, cited from earlier work
[10] = biological target: T1, delta opioid receptor; design: expressed in transfected cells; host or cells: transfected cells; details: read-out: Ki δ; Table 5; data taken from MacDougall et al.; cited from earlier work
[11] = Metabolic stability in rat liver microsomes; details: for half-life at 0.1 mM: rat, microsomes, pH 7.4
[12] = system: adult male rats; assay: Precipitation of somatic signs of withdrawal after acute morphine; type: in vivo, rat; details: s.c., 4 hr after morphine 5.0 mg/kg
[13] = biological target: T3, mu receptor (Mus musculus, UniProt P42866); assay: cell-based; details: 1 μM compound; surface staining relative to control, lower = more internalization
T3 construct: expressed in transfected cells

[14] = system: Male ICR mice; assay: Tail flick assay for nociception; type: in vivo; details: for ED50: Mus musculus, sc, read-out: ED50 antinociception
[15] = system: heroin-dependent rats; assay: Heroin self-administration in heroin-dependent rats; type: in vivo, rat; details: for effect on heroin self-administration: s.c. 15 mins prior to dark phase, doses 13e 0.04, 13g 0.2, M6G 0.04, 13h 0.01, 0.04, 0.2 mg/kg
[16] = Penson et al.; cited from earlier work
[17] = biological target: T2, kappa opioid receptor; design: expressed in transfected cells; host or cells: transfected cells; details: read-out: Ki κ; Table 5; data taken from MacDougall et al.; cited from earlier work
[18] = system: adult male rats; details: literature standard, Schulteis et al.; cited from earlier work
[19] = Table 9, ND, No Detectable change

T2 sequence (P41145 whole entry): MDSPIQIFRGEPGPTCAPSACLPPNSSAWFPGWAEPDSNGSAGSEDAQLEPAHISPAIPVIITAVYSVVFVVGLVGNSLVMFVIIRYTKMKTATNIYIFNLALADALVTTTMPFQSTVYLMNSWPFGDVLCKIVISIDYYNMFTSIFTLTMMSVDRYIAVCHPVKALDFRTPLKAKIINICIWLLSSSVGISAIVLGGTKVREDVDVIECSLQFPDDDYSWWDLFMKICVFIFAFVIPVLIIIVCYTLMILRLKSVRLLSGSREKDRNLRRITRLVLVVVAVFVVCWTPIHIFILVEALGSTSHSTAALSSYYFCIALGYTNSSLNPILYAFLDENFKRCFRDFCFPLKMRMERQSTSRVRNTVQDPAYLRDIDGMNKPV
T3 sequence (P42866 whole entry): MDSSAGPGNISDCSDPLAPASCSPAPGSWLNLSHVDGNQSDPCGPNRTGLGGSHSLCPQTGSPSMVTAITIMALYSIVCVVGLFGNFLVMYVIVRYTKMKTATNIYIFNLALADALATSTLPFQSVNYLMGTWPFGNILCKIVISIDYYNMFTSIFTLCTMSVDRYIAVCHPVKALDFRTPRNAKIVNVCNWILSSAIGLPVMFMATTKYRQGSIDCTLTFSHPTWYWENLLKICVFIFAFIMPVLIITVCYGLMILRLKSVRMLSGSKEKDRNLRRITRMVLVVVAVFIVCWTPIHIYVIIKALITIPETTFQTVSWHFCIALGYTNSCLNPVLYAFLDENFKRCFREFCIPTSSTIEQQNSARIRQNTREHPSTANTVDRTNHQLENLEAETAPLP
T1 sequence (P41143 whole entry): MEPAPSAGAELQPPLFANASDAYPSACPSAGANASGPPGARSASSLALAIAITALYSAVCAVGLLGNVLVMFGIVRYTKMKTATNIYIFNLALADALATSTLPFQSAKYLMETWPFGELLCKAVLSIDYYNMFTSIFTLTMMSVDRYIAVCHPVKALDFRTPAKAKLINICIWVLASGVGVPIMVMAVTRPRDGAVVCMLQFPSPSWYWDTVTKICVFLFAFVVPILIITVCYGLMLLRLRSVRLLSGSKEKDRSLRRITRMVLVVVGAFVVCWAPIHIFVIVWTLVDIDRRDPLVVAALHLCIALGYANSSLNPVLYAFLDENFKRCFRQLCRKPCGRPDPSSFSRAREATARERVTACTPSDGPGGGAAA

SMILES	HLS9 t 1/2 [1]	Ki ([2]; Table 1, read-out: Ki δ) [nM]	Ki ([4]; Table 1, read-out: Ki κ) [nM]	pH 2.0 t 1/2 [5]	pH 7.4 t 1/2 [5]	Emax ([6]; Table 2) [%]	EC50 ([6]; delta EC50, Table 2) [nM]	melting point	δ Emax [7]	EC50 [7] [nM]	MLM t 1/2 [8]	Emax ([3]; Table 2) [%]	EC50 ([3]; Table 2, read-out: kappa EC50) [nM]	remaining activity at 1 µM [13] [%]	half-life at 0.1 mM [1] [h]	effect on heroin self-administration [15]	also measured
CN1CCC23c4c5ccc(O)c4OC2C(SC2O[C@H](C(=O)O)[C@@H](O)[C@H](O)[C@H]2O)C=CC3C1C5 (stereo partly drawn) [4a, Morphine-6β-S-D-glucuronide]	stable	31.4 ± 2.3	288 ± 12	stable	stable	78.7	50.1 ± 36.7	> 300 °C (dec.)	78.7 ± 0.9	50.1 ± 36.7	stable	–	–	–	–	–	kappa % stimulation ([3]; Table 2): flat; kappa EC50 ([3]; Table 2): flat; delta % stimulation ([6]; Table 2): 78.70 ± 0.92%
CN1CCC23c4c5ccc(O)c4OC2C(SC2O[C@H](CO)[C@@H](O)[C@H](O)[C@H]2O)C=CC3C1C5 (stereo partly drawn) [4b, 6β-Thiomorphine-6β-S-D-glucopyranoside]	stable	56.2 ± 2.15	136 ± 16.9	–	–	51.5	192 ± 14.8	> 300 °C (dec.)	51.5 ± 6.5	192 ± 15	stable	42.5 ± 2.5	321 ± 93.1	–	–	–	κ Emax ([9]; ND: No detectable activity): 42.5 ± 2.5; EC50 ([9]; read-out: κ EC50): 321 ± 93 nM; Ki [10]: 56.2 ± 2.2 nM; delta % stimulation ([6]; Table 2): 51.5 ± 6.5%
COc1cccc(C(=O)NC2CCC3(O)C4Cc5ccc(O)c6c5C3(CCN4CC3CC3)C2O6)c1 (stereo not shown) [6d, 6-(3′-Methoxy)benzamido-14-hydroxy-17-(cyclopropylmethyl)nordesmorphine]	–	–	–	–	–	–	–	–	–	–	–	–	–	–	–	–	fold more stable than nalmefene ([11]; rat liver microsomes): 22 fold; fold more stable than naltrexone ([11]; rat liver microsomes): 6 fold; half-life at 0.1 mM [11]: > 9.08 h; Half life in Human liver S-9 [1, 19]: not detectably metabolized; Ki ([2]; Table 7, CHO membranes, read-out: Ki delta): 10.6 ± 1.2 nM; EC50 [3]: 1.7 nM; agonist/antagonist character at the kappa receptor [3]: partial or full or partial agonism; Emax [3]: 109%; Ki [4]: 0.6 ± 0.01 nM; Emax ([6]; Table 8): 98.7%; EC50 ([6]; Table 8, read-out: delta EC50): 11.1 nM; agonist/antagonist character at the delta receptor ([6]; based on [35S]GTPγS binding): partial or full or partial agonism; Half life in Mouse liver microsomes [8, 19]: not detectably metabolized; approximate EC50 for precipitation of somatic signs of withdrawal [12]: less than 0.1 mg/kg; dose at which somatic signs of withdrawal peaked [12]: 0.3 mg/kg
COC(=O)c1cccc(C(=O)NC2C=CC3C4Cc5ccc(O)c6c5C3(CCN4C)C2O6)c1 (stereo not drawn) [13e, 6β-(3′-Carbomethoxy)benzamidomorphine]	–	3.39 ± 0.03	1.53 ± 0.2	stable	828.1 min	99.6 ± 2.19	6.2 ± 0.42	166 °C (dec.)	–	–	stable	88.6 ± 8.6	11.2 ± 3.51	81.8	3.38	effective at reducing heroin self-administration	analgesic effects of 30 mg/kg dose relative to the lower dose ([14]; 30 mg/kg vs the (10) mg/kg dose): 2 fold; ED50 ([14]; 0.5 h, 30 min post-injection, s.c.): 30.2 mg/kg; ED50 ([14]; 1 h, 60 min post-injection, s.c.): 12.6 mg/kg; effect on tail-flick latency ([14]; s.c., 30 and 60 min post-injection): increase in tail-flick latency
CN1CCC23c4c5ccc(O)c4OC2C(NC(=O)c2ccc(Cl)c(Cl)c2)C=CC3C1C5 (stereo not drawn) [13g, 6β-(3′,4′-Dichloro)benzamidomorphine]	–	0.94 ± 0.02	0.75 ± 0.2	–	–	106 ± 11.5	1.3 ± 0.3	228.5 °C (dec.)	–	–	stable	78.5 ± 1.5	0.03 ± 0.02	47	3.86	effective at reducing heroin self-administration	–
CN1CCC23c4c5ccc(O)c4OC2C(NC(=O)Cc2cccs2)C=CC3C1C5 (stereo not drawn) [13h, 6β-(Thiophen-2′-yl)acetamidomorphine]	stable	14.4 ± 1.26	0.58 ± 0.17	–	–	57.3 ± 2.8	32.4 ± 2.1	154.4 °C	–	–	–	98 ± 1	4.5 ± 0.2	91.1	–	effective at reducing heroin self-administration	half-life at 0.1 mM [8]: 11.2 h; reduction of heroin intake ([15]; dose of 0.01 mg/kg): 1000 µg/kg
CN1CCC23c4c5ccc(O)c4OC2C(OC2O[C@H](C(=O)O)[C@@H](O)[C@H](O)[C@H]2O)C=CC3C1C5 (stereo partly shown) [M6G, Morphine-6-glucuronide, reference compound]	stable	161 ± 0.73	4060 ± 230	stable	stable	80	190 ± 22.9	–	80.0 ± 1.0	190 ± 20	stable	–	–	–	–	effective at reducing heroin self-administration	oral bioavailability [16]: 11%; Ki [17]: 4060 ± 230 nM; Ki [10]: 170 ± 1 nM; EC50 ([3]; Table 8, read-out: kappa EC50): > 10000 nM; delta % stimulation ([6]; Table 8): 80.0 ± 1.0%; EC50 ([6]; delta EC50, Table 8): 190 ± 22.9 nM
C=C1CC[C@@]2(O)[C@H]3Cc4ccc(O)c5c4[C@@]2(CCN3CC2CC2)[C@H]1O5 [nalmefene, reference compound]	–	–	–	–	–	–	–	–	–	–	–	–	–	–	3.62	–	half-life at 0.1 mM [11]: 0.417 h; half-life at 0.1 mM [8]: 0.567 h; approximate EC50 for precipitation of somatic signs of withdrawal [12]: 0.6 to 1 mg/kg
C=CCN1CC[C@]23c4c5ccc(O)c4O[C@H]2C(=O)CC[C@@]3(O)[C@H]1C5 [naloxone]	–	–	–	–	–	–	–	–	–	–	–	–	–	–	–	–	minimum effective dose to precipitate somatic signs of withdrawal [18]: 0.1 to 0.3 mg/kg
